Some test systems named below: P388 leukemia; KM20L2 colon; P388/ADR leukemia; SN12K1 renal; M19-MEL melanoma; HOP-18 NSCLC; DMS 114 small cell lung; DLD-1 colon; LXFL 529 NSCLC; XF 498 CNS.
Common to all, as to assay: NCI tumour cell line growth inhibition, 48 h

Values joined by “and” are separate entries in the source; they are usually repeats but may differ in a detail not shown here. Equal values may be shown once.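 Test compounds were applied to cells in 96-well plates for 48 hours at 5 doses. GI50 marks 50% less growth. TGI: concentration producing complete growth inhibition.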

In the case of `COC(=O)[C@@H](O)[C@](O)(CCC(C)C)C(=O)O[C@@H]1C(OC)=C[C@]23CCCN2CCc2cc4c(cc2[C@H]13)OCO4`, the TGI with P388 leukemia worked out at 1.16 µM; in the assay with KM20L2 colon, 9.49 µM; with P388/ADR leukemia, 11 µM; in the assay on SN12K1 renal, 5.89 µM; in the assay on M19-MEL melanoma, 4.16 µM; in the assay with HOP-18 NSCLC, 7.81 µM. Moreover, the TGI was 2.2 µM with DMS 114 small cell lung and greater than 19.7 µM in the assay with DLD-1 colon.

In the case of `COc1ccc(/C=c2\sc3n(c2=O)CCN=3)cc1`, the TGI in the assay on KM20L2 colon, in the assay on M19-MEL melanoma, with LXFL 529 NSCLC, in the assay on HOP-18 NSCLC and in the assay on DLD-1 colon was greater than 100 µM each time.

For `Cc1ccc(NC(=O)CC2Sc3ccccc3NC2=O)cc1C` (centres undefined), the TGI in the assay with KM20L2 colon, in the assay on M19-MEL melanoma, in the assay on LXFL 529 NSCLC, with HOP-18 NSCLC, in the assay with DMS 114 small cell lung and in the assay on DLD-1 colon was greater than 100 µM throughout. This compound also yielded a TGI in the assay on XF 498 CNS greater than 100 µM.

Take `COc1ccc2[nH]cc(/C=C(/C)c3ccncc3)c2c1`: the TGI in the assay with P388 leukemia was 9.68 µM; with KM20L2 colon it was 8.67 µM; in the assay with P388/ADR leukemia it was 22.6 µM; with SN12K1 renal, 27.6 µM and > 100 µM; in the assay with M19-MEL melanoma, 32 µM and 21.5 µM; in the assay on HOP-18 NSCLC, greater than 100 µM. In addition, the TGI was 7.19 µM and 6.35 µM in the assay with DMS 114 small cell lung; greater than 100 µM with DLD-1 colon; 27.8 µM and 44.5 µM in the assay with XF 498 CNS. For the same compound, the GI50 in the assay with KM20L2 colon is 2.96 µM; with SN12K1 renal, 5.6 µM; with M19-MEL melanoma, 6.77 µM; in the assay on DMS 114 small cell lung, 2.23 µM; in the assay on DLD-1 colon it was 4 µM; in the assay with XF 498 CNS, 4.3 µM.

`CC1=C(Cl)C=CP(=O)(Oc2ccccc2)C1` (centres undefined): the TGI in the assay on KM20L2 colon is greater than 100 µM; in the assay with LXFL 529 NSCLC it was 28.7 µM; in the assay with HOP-18 NSCLC, 89.6 µM; in the assay on DMS 114 small cell lung, 90.9 µM; in the assay on XF 498 CNS it was greater than 100 µM.

On to `Nc1c(S(=O)(=O)O)cc2cc(S(=O)(=O)O)ccc2c1N=Nc1ccc(-c2ccc(N=Nc3c(N)c(S(=O)(=O)O)cc4cc(S(=O)(=O)O)ccc34)c(S(=O)(=O)O)c2)cc1`, for which the TGI in the assay with P388 leukemia, in the assay on KM20L2 colon, in the assay on P388/ADR leukemia, in the assay on SN12K1 renal, with M19-MEL melanoma and in the assay with HOP-18 NSCLC was greater than 100 µM throughout. In addition, the TGI in the assay with DMS 114 small cell lung, in the assay with DLD-1 colon and with XF 498 CNS was greater than 100 µM in each case.

On to `N#C/C(=C1/Sc2c(nc[nH]c2=O)N1c1ccccc1)c1nc2ccccc2[nH]1`, for which the TGI in the assay with KM20L2 colon, with M19-MEL melanoma, in the assay with LXFL 529 NSCLC, in the assay on DMS 114 small cell lung, in the assay with DLD-1 colon and with XF 498 CNS was greater than 100 µM in each case.

With `CCCCCCCC/C=C\CCCCCCCCCCCC(=O)O`, the TGI is 51.6 µM with P388 leukemia; 122 µM in the assay on KM20L2 colon; 36.3 µM with P388/ADR leukemia; 52.4 µM in the assay with SN12K1 renal; 97.2 µM in the assay on M19-MEL melanoma; greater than 125 µM with HOP-18 NSCLC. In addition, the TGI was greater than 125 µM in the assay on DLD-1 colon and 2.82 µM in the assay on XF 498 CNS.

`Nc1nc(SCCC/C=C/I)nc2c1ncn2C1OC(COP(=O)(O)O)C(O)C1O` (centres undefined): the TGI in the assay on KM20L2 colon, with M19-MEL melanoma, in the assay on LXFL 529 NSCLC, in the assay with DMS 114 small cell lung, in the assay with DLD-1 colon and in the assay on XF 498 CNS was greater than 100 µM each time.

The values above are taken from PubChem BioAssay (NCI).
